Data reported in patent publication US6960573B2, “Vitamin D3 derivative and treating agent for inflammatory respiratory disease using same” (Teijin Limited, priority 1998, dated 2005).

Tests used:
[1] = system: hamster LPS-induced pneumonia model; assay: Neutrophilic infiltration suppressing effect, hamster LPS-induced pneumonia model; format: in vivo, golden hamster; conditions: Mesocricetus auratus, Neutrophil, inhaled or nasal, administered infratracheally just after LPS inhalation, neutrophils in washing after 24 hr, read-out: % Suppression (number of neutrophils, based on the control); for inhibition in vivo at 0.004 mg/kg: dose 4 μg/kg; for inhibition in vivo at 0.02 mg/kg: dose 20 μg/kg
Experimental: A male golden hamster was placed in an inhalation chamber (volume: 12 liter) and allowed to inhale LPS (nebulizer filled concentration: 2.0 mg/ml) generated by an ultrasonic nebulizer for 30 min to cause pneumonia. Just after the inhalation of the LPS, a treating agent of the present invention was administered infratracheally at a dosage of 1 to 20 μg/kg under halothane anesthesia. After 24 hr, tracheal branches and pulmonary alveoli were washed, and the number of neutrophils in the washing was determined. Using the number of neutrophils obtained in the absence of the treating agent of the present invention as the control, the decreasing rates of the numbers of neutrophils were expressed in terms of percent suppression based on the control.

[2] = Blood calcium level-elevation effect, oral administration to rats; format: in vivo; conditions: ratio to 1α,25-dihydroxyvitamin D3
Source text: For example, the blood calcium level-elevation effects of compounds of the present invention in oral administration to rats, which are compared with that of 1 α,25-dihydroxyvitamin D3, are as shown below: • Compound No. 3105c, 1/>100 • Compound No.3405, 1/>100 • Compound No. 5102, 1/259 • Compound No. 5107, 1/11.

Row | blood calcium level-elevation effect compared with that of 1α,25-dihydroxyvitamin D3 [2] | Compound | inhibition in vivo at 0.004 mg/kg [1] [%] | inhibition in vivo at 0.02 mg/kg [1] [%]
1 |  | C=C1/C(=C\C=C2/CCC[C@@]3(C)C2CC[C@@H]3[C@H](C)CC2CC(C)(C)C(=O)O2)C[C@@H](O)C[C@@H]1O (some centres unmarked) [2102a] | > 40 | 
2 |  | C=C1/C(=C\C=C2/CCC[C@@]3(C)C2CC[C@@H]3[C@H](C)CC2CC3(CC3)C(=O)O2)C[C@@H](O)C[C@@H]1O (some centres unmarked) [2105a] | > 40 | 
3 |  | C=C1/C(=C\C=C2/CCC[C@@]3(C)C2CC[C@@H]3[C@H](C)/C=C2\CCC(C)(F)C2=O)C[C@@H](O)C[C@@H]1O (some centres unmarked) [3105d] | > 40 | 
4 |  | C=C1/C(=C\C=C2/CCC[C@@]3(C)C2CC[C@@H]3[C@H](C)CC2CCC(=O)C2)C[C@@H](O)C[C@@H]1O (some centres unmarked) [4101a] | 20 to 40 | 
5 |  | C=C1/C(=C\C=C2/CCC[C@@]3(C)C2CC[C@@H]3C(C)/C=C2\CCC(=O)C2(C)O)C[C@@H](O)C[C@@H]1O (some centres unmarked) [4203b] | 20 to 40 | 
6 |  | C=C1/C(=C\C=C2/CCC[C@@]3(C)C2CC[C@@H]3[C@H](C)C[C@H]2C=C(C)C(=O)O2)C[C@@H](O)C[C@@H]1O (some centres unmarked) [Compound No. 1107b] | < 20 | 
7 |  | C=C1/C(=C\C=C2/CCC[C@@]3(C)C2CC[C@@H]3[C@H](C)/C=C2\CCN(C)C2=O)C[C@@H](O)C[C@@H]1O (some centres unmarked) [Compound No. 3405] | > 40 | 
8 |  | C=C1/C(=C\C=C2/CCC[C@@]3(C)C2CC[C@@H]3[C@H](C)CC2=CC(=O)CC2)C[C@@H](O)C[C@@H]1O (some centres unmarked) [Compound No. 4301] |  | < 20
9 | 1/259 | C=C1/C(=C\C=C2/CCC[C@@]3(C)C2CC[C@@H]3[C@H](C)CCC[C@@](C)(O)C(=O)N(C)C)C[C@@H](O)C[C@@H]1O (some centres unmarked) [Compound No. 5102] |  | > 40
10 |  | C=C1/C(=C\C=C2/CCC[C@@]3(C)C2CC[C@@H]3[C@H](C)CCC[C@@](C)(O)C(=O)N2CCCCC2)C[C@@H](O)C[C@@H]1O (some centres unmarked) [Compound No. 5106] |  | 20 to 40
11 | 1/11 | C=C1/C(=C\C=C2/CCC[C@@]3(C)C2CC[C@@H]3[C@H](C)CCC[C@@](C)(O)C(C)=O)C[C@@H](O)C[C@@H]1O (some centres unmarked) [Compound No. 5107] |  | > 40
12 |  | C=C1/C(=C\C=C2/CCC[C@@]3(C)C2CC[C@@H]3[C@H](C)CCC[C@@](C)(O)C(C)(C)O)C[C@@H](O)C[C@@H]1O (some centres unmarked) [compound 5109] |  | 20 to 40
